Where a SMILES comes first, the peptide text is derived from it. The star is where a group is joined. Fmoc = O=C(OCC1c2ccccc2-c2ccccc21)*; tBu = CC(C)(C)*
Target: T1, voltage-gated Na+ channel 1.6 (Nav1.6) (Homo sapiens, UniProt Q9UQD0)
T1 construct: gene SCN8A; hNav1.6 channel stably expressed in HEK293 cells
Test: whole-cell voltage-clamp electrophysiology in HEK-Nav1.[…] cells, peak transient INa dose-response
Assay type: cell-based

T1 sequence (Q9UQD0 whole entry): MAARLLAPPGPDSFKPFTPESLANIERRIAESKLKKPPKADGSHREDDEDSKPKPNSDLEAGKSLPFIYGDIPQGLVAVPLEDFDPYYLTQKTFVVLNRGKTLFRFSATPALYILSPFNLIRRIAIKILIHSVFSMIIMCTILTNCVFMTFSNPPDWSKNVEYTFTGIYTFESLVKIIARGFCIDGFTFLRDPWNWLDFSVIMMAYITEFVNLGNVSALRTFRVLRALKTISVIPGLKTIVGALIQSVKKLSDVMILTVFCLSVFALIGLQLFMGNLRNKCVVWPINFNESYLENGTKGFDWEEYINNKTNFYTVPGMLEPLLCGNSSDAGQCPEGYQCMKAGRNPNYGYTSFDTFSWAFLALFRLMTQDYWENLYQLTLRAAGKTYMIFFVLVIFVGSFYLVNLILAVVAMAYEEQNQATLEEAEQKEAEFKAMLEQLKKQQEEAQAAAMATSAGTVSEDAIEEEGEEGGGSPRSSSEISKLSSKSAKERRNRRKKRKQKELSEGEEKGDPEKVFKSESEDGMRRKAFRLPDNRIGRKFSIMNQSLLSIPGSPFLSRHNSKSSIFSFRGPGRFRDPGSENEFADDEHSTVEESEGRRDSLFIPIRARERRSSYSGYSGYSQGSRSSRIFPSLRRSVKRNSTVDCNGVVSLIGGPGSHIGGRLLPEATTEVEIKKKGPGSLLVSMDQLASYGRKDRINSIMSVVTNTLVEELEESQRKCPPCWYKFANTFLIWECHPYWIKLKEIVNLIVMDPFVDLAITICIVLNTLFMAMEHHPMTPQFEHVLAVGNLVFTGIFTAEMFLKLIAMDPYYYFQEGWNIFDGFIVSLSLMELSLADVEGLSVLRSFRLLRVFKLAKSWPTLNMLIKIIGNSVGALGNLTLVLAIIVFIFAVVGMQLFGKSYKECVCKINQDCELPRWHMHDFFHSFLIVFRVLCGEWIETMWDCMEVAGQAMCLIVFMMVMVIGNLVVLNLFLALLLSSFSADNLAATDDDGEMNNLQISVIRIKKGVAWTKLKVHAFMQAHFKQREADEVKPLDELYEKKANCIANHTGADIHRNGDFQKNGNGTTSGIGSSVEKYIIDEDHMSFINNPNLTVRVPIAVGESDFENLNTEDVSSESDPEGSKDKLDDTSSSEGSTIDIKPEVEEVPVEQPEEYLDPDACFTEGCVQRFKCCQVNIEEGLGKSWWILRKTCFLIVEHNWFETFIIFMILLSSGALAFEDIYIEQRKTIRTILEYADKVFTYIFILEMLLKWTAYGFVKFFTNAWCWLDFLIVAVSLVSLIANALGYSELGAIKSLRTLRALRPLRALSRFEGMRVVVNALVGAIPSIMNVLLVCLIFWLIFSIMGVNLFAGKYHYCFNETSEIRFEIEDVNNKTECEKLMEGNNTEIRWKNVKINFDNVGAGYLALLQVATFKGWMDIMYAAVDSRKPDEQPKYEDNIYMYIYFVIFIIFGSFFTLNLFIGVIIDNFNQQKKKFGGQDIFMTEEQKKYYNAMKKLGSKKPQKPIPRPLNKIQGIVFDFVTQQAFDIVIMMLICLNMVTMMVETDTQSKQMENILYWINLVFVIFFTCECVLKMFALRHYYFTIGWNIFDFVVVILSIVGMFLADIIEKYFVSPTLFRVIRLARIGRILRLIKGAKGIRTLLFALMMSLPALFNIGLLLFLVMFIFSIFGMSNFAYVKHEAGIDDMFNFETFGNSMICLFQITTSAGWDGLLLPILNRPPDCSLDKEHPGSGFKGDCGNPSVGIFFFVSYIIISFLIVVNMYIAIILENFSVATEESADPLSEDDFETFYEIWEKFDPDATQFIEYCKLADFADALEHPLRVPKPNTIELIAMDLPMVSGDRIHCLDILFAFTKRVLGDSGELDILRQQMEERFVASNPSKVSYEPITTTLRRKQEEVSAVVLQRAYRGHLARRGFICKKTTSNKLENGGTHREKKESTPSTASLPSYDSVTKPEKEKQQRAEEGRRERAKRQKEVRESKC

CC(C)[C@H](NC(=O)[C@H](Cc1ccc(OC(C)(C)C)cc1)NC(=O)[C@H](Cc1ccc(OC(C)(C)C)cc1)NC(=O)OCC1c2ccccc2-c2ccccc21)C(N)=O [PW201] (Fmoc-Tyr(tBu)-Tyr(tBu)-Val-NH2)
IC50: 15.1 µM

— article PMC8708424, “Pharmacologically Targeting the Fibroblast Growth Factor 14 Interaction Site on the Voltage-Gated Na^+ Channel 1.6 Enables Isoform-Selective Modulation” (International Journal of Molecular Sciences, 2021)
